Measured values from publication PMC11201714, “Insights into the Effects of Ligand Binding on Leucyl-tRNA Synthetase Inhibitors for Tuberculosis: In Silico Analysis and Isothermal Titration Calorimetry Validation” (Biomolecules, 2024).
≈ marks a conversion by molar mass, not a printed value.

Assays:
[1] = tested on: Wild-type Mycobacterium tuberculosis biofilm; experiment: Inhibition of mycobacterial biofilm formation (crystal violet)
[2] = tested on: Leucyl-tRNA synthetase mRNA; experiment: Leucyl t-RNA synthetase gene expression inhibition (qPCR); assay type: cell-based; conditions: A549 cells, 25 µL (10 mM) overnight, RT-PCR, in words
[3] = tested on: Mycobacterium tuberculosis strain H37Rv (ATCC 25618); experiment: Antimycobacterial activity, well diffusion method; assay type: cell-based; conditions: LJM agar, 6 weeks; for MIC: Mycobacterium tuberculosis
[4] = target: T1, leucyl t-RNA synthetase (LeuRS) (Mycobacterium tuberculosis, UniProt P9WFV1); experiment: biochemical; assay type: binding; conditions: for Binding Enthalpy ΔH / Kd: ITC; for Kd: pH 7.0, read-out: Floating Association Constant ka (converted)
T1 construct: purchased Sigma-Aldrich

[5] = Conc. of Ligand/Protein 0.0125 µM
[6] = Conc. of Ligand/Protein 0.025 µM
[7] = Conc. of Ligand/Protein 0.050 µM
[8] = Conc. of Ligand/Protein 0.100 µM
[9] = Conc. of Ligand/Protein 0.200 µM
[10] = Conc. of Ligand/Protein 0.400 µM
[11] = Conc. of Ligand/Protein 0.800 µM
[12] = Conc. of Ligand/Protein 1.600 µM
[13] = Conc. of Ligand/Protein 3.20 µM
[14] = Conc. of Ligand/Protein 5.00 µM

T1 sequence (P9WFV1 whole entry): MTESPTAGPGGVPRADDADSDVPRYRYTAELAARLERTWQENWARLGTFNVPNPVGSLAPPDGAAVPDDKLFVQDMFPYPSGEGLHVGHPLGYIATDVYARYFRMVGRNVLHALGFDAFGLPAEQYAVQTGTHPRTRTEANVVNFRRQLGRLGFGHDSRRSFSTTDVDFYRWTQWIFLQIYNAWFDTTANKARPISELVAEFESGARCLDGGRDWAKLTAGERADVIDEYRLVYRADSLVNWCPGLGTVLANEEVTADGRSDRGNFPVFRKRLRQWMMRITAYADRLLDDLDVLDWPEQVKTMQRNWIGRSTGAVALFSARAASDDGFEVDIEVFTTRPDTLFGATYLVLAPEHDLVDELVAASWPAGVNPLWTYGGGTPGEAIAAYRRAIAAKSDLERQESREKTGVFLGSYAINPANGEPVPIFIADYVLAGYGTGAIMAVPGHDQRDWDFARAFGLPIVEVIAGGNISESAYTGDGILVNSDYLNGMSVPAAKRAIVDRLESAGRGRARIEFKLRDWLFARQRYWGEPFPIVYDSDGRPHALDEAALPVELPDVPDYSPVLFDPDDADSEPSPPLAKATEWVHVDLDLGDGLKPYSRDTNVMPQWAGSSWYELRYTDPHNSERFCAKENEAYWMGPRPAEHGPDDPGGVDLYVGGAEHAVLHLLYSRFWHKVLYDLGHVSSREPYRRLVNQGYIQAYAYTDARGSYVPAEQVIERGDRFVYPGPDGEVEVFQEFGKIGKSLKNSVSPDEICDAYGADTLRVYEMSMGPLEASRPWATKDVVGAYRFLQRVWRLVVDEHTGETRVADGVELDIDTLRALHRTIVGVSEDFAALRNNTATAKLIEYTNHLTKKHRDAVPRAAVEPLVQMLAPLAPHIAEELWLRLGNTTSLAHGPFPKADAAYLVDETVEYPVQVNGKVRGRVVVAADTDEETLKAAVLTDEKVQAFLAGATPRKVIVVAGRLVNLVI

| Compound | OD (biofilm formation) ([1]; Conc. 5.0 (unit not given)) | OD (biofilm formation) ([1]; Conc. 10.0 (unit not given)) | OD (biofilm formation) ([1]; Conc. 15.0 (unit not given)) | OD (biofilm formation) ([1]; Conc. 20.0 (unit not given)) | OD (biofilm formation) ([1]; Conc. 25.0 (unit not given)) | Zone of Inhibition [3] | MIC [3] | ΔH for Ligands ([4]; Conc. of Ligand/Protein 00 µM) | ΔH for Ligands [4, 5] | ΔH for Ligands [4, 6] | ΔH for Ligands [4, 7] | ΔH for Ligands [4, 8] | ΔH for Ligands [4, 9] | ΔH for Ligands [4, 10] | ΔH for Ligands [4, 11] | ΔH for Ligands [4, 12] | ΔH for Ligands [4, 13] | ΔH for Ligands [4, 14] | Binding Enthalpy ΔH ([4]; 25 °C, pH 7.0, fitted) | Kd ([4]; 25 °C) | also measured |
| --- | --- | --- | --- | --- | --- | --- | --- | --- | --- | --- | --- | --- | --- | --- | --- | --- | --- | --- | --- | --- | --- |
| OB1OCc2cc(F)ccc21 [AN2690] | 0.4256 | 0.3658 | 0.2452 | 0.2048 | 0.0980 | – | – | – | – | – | – | – | – | – | – | – | – | – | – | – | LeuRS gene expression (copies of mRNA per cycle) [2]: lower copies of LeuRS |
| CC(C)C(N)C(=O)OCC(CO)OCn1cnc2c(=O)[nH]c(N)nc21 (stereo not drawn) [Compound 1035, 2-((2-amino-6-oxo-1H-purin-9(6H)-yl)methoxy)-3-hydroxypropyl 2-amino-3-methylbutanoate] | 0.7685 | 0.6255 | 0.5454 | 0.3256 | 0.1854 | 13.68 ± 0.21 mm | 119.87 ± 0.1 µg/mL (≈ 338 µM) | -20.76 kcal/mol | -19.51 kcal/mol | -18.06 kcal/mol | -15.16 kcal/mol | -13.83 kcal/mol | -10.49 kcal/mol | -8.164 kcal/mol | -5.521 kcal/mol | -3.884 kcal/mol | -3.023 kcal/mol | 0 kcal/mol | -11.75 kcal/mol | 23.9 µM | – |
| CC(C)(N)C(=O)N[C@H](Cc1c[nH]c2ccccc12)C(=O)N[C@H](Cc1c[nH]c2ccccc12)NC=O [Compound 1054, 2-amino-N-((R)-1-(((R)-1-formamido-2-(1H-indol-3-yl)ethyl)amino)-3-(1H-indol-3-yl)-1-oxopropan-2-yl)-2-methylpropanamide] | 0.5428 | 0.4548 | 0.3425 | 0.2186 | 0.1254 | 18.45 ± 0.19 mm | 186.4 ± 0.21 µg/mL (≈ 393 µM) | -19.62 kcal/mol | -18.2 kcal/mol | -16.31 kcal/mol | -14.37 kcal/mol | -12.49 kcal/mol | -9.859 kcal/mol | -7.106 kcal/mol | -4.89 kcal/mol | -3.145 kcal/mol | -2.49 kcal/mol | 0 kcal/mol | -11.53 kcal/mol | 0.158 µM | biofilm formation inhibitory activity ([1]; in words, compared to control / other compounds): higher inhibition in biofilm formation; Binding Enthalpy ΔH [4]: -48.23 kL/mol; LeuRS gene expression (copies of mRNA per cycle) [2]: more effective in down-regulating the LeuRS gene |
| NCC[C@H](O)C(=O)N[C@@H]1C[C@H](N)[C@@H](O[C@H]2O[C@H](CN)[C@@H](O)[C@H](O)[C@H]2O)[C@H](O)[C@H]1O[C@H]1O[C@H](CO)[C@@H](O)[C@H](N)[C@H]1O [Compound 2077, (S)-4-amino-N-((1R,2S,3S,4R,5S)-5-amino-2-(((2S,3R,4S,5S,6R)-4-amino-3,5-dihydroxy-6-(hydroxymethyl)tetrahydro-2H-pyran-2-yl)oxy)-4-(((2R,3R,4S,5S,6R)-6-(aminomethyl)-3,4,5-trihydroxytetrahydro-2H-pyran-2-yl)oxy)-3-hydroxycyclohexyl)-2-hydroxybutanamide] | 0.7588 | 0.5358 | 0.3585 | 0.2544 | 0.1456 | 15.57 ± 0.80 mm | 147.4 ± 0.8 µg/mL (≈ 252 µM) | -20.11 kcal/mol | -19.15 kcal/mol | -17.64 kcal/mol | -14.67 kcal/mol | -13.18 kcal/mol | -9.9 kcal/mol | -7.469 kcal/mol | -4.818 kcal/mol | -3.215 kcal/mol | -2.476 kcal/mol | 0 kcal/mol | -11.92 kcal/mol | 129 µM | – |
